What was measured:
[1] = biological target: pepsin (Homo sapiens, UniProt P0DJD8); experiment: Proteolysis of casein by pepsin with ascorbic acid in citric acid buffer (OPA fluorescence, TAAE); format: biochemical
Procedure: 1. […]
(§1) The four test tubes were respectively incubated at 37° C. for 10 minutes, 1 hour, 2 hours and 3 hours, an equal amount of 10% trichloroacetic acid (TCA) solution was added into each test tube and mixed with the control solution uniformly, and the test tubes were held at room temperature for 10 minutes and then centrifuged at 3000 rpm for 10 minutes. 20 μL of the supernatants taken from the above-mentioned test tubes at four time points were put into four new test tubes. 2.4 mL o-phthalaldehyde (OPA) reagent was added into each new test tube and held for 2 minutes, and the fluorescence intensity was measured at EX. 340 nm and EM. 455 nm by a fluorescence spectrometer. […] The four test tubes were respectively incubated at 37° C. for 10 minutes, 1 hour, 2 hours and 3 hours, an equal amount of 10% TCA solution was added into each test tube and mixed with the experimental solution uniformly, and the test tubes were held at room temperature for 10 minutes and then centrifuged at 3000 rpm for 10 minutes. 20 μL of the supernatants taken from the above-mentioned test tubes at four time points were put into four new test tubes. 2.4 mL OPA reagent was added into each new test tube and held for 2 minutes, and the fluorescence intensity was measured at EX. 340 nm and EM. 455 nm by the fluorescence spectrometer. […] The four test tubes were respectively incubated at 37° C. for 10 minutes, 1 hour, 2 hours and 3 hours, an equal amount of 10% TCA solution was added into each test tube and mixed with the experimental solution uniformly, and the test tubes were held at room temperature for 10 minutes and then centrifuged at 3000 rpm for 10 minutes. 20 μL of the supernatants taken from the above-mentioned test tubes at four time points were put into four new test tubes. 2.4 mL OPA reagent was added into each new test tube and held for 2 minutes, and the fluorescence intensity was measured at EX. 340 nm and EM. 455 nm by the fluorescence spectrometer. […] The four test tubes were respectively incubated at 37° C. for 10 minutes, 1 hour, 2 hours and 3 hours, an equal amount of 10% TCA solution was added into each test tube and mixed with the experimental solution uniformly, and the test tubes were held at room temperature for 10 minutes and then centrifuged at 3000 rpm for 10 minutes. 20 μL of the supernatants taken from the above-mentioned test tubes at four time points were put into four new test tubes. 2.4 mL OPA reagent was added into each new test tube and held for 2 minutes, and the fluorescence intensity was measured at EX. 340 nm and EM. 455 nm by the fluorescence spectrometer. The obtained fluorescence intensity was calculated as the amount of tyrosine according to the tyrosine calibration line established in advance at the same pH value, and represented as TAAE (μg/mL). 2. […] The four test tubes were respectively incubated at 37° C. for 10 minutes, 1 hour, 2 hours and 3 hours, an equal amount of 10% TCA solution was added into each test tube and mixed with the control solution uniformly, and the test tubes were held at room temperature for 10 minutes and then centrifuged at 3000 rpm for 10 minutes. 20 μL of the supernatants taken from the above-mentioned test tubes at four time points were put into four new test tubes. 2.4 mL OPA reagent was added into each new test tube and held for 2 minutes, and the fluorescence intensity was measured at EX. 340 nm and EM. 455 nm by the fluorescence spectrometer. […] The four test tubes were respectively incubated at 37° C. for 10 minutes, 1 hour, 2 hours and 3 hours, an equal amount of 10% TCA solution was added into each test tube and mixed with the experimental solution uniformly, and the test tubes were held at room temperature for 10 minutes and then centrifuged at 3000 rpm for 10 minutes. 20 μL of the supernatants taken from the above-mentioned test tubes at four time points were put into four new test tubes. […]

[2] = biological target: trypsin (Homo sapiens, UniProt P07477); experiment: Proteolysis of casein by trypsin with ascorbic acid in citric acid buffer (OPA fluorescence, TAAE); format: biochemical
Procedure: as §1

[3] = environment where the pH is greater than 4; cited from earlier work
[4] = pH 5.0, 60 ppm ascorbic acid, 0.1 hr
[5] = pH 5.0, 60 ppm ascorbic acid, 1 hr
[6] = pH 5.0, 60 ppm ascorbic acid, 2 hr
[7] = pH 5.0, 60 ppm ascorbic acid, 3 hr
[8] = pH 5.0, 120 ppm ascorbic acid, 0.1 hr
[9] = pH 5.0, 120 ppm ascorbic acid, 1 hr
[10] = pH 5.0, 120 ppm ascorbic acid, 2 hr
[11] = pH 5.0, 120 ppm ascorbic acid, 3 hr
[12] = pH 5.0, 240 ppm ascorbic acid, 0.1 hr
[13] = pH 5.0, 240 ppm ascorbic acid, 1 hr
[14] = pH 5.0, 240 ppm ascorbic acid, 2 hr
[15] = pH 5.0, 240 ppm ascorbic acid, 3 hr
[16] = pH 6.0, 60 ppm ascorbic acid, 0.1 hr
[17] = pH 6.0, 60 ppm ascorbic acid, 1 hr
[18] = pH 6.0, 60 ppm ascorbic acid, 2 hr
[19] = pH 6.0, 60 ppm ascorbic acid, 3 hr
[20] = pH 6.0, 120 ppm ascorbic acid, 0.1 hr
[21] = pH 6.0, 120 ppm ascorbic acid, 1 hr
[22] = pH 6.0, 120 ppm ascorbic acid, 2 hr
[23] = pH 6.0, 120 ppm ascorbic acid, 3 hr
[24] = pH 6.0, 240 ppm ascorbic acid, 0.1 hr
[25] = pH 6.0, 240 ppm ascorbic acid, 1 hr
[26] = pH 6.0, 240 ppm ascorbic acid, 2 hr
[27] = pH 6.0, 240 ppm ascorbic acid, 3 hr
[28] = pH 6.0, groups containing ascorbic acid

Sequence of pepsin (P0DJD8 63-388): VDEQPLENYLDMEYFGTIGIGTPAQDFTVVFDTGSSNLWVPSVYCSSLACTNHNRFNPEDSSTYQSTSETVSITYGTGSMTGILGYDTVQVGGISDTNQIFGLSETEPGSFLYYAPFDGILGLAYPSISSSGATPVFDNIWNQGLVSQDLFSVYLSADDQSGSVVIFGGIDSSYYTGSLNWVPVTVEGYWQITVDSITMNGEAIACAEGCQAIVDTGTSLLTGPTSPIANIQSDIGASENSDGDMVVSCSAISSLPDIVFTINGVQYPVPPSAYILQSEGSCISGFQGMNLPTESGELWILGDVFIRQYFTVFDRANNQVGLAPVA

In the case of `O=C1O[C@H]([C@@H](O)CO)C(O)=C1O` [ascorbic acid], the “total amino acid equivalent (TAAE)” value ([1]; pH 2.0, 60 ppm ascorbic acid, 0.1 hr) is reported as 3.8 µg/mL, the “total amino acid equivalent (TAAE)” value ([1]; pH 2.0, 60 ppm ascorbic acid, 1 hr) is reported as 44.9 µg/mL and the “total amino acid equivalent (TAAE)” value ([1]; pH 2.0, 60 ppm ascorbic acid, 2 hr) is reported as 70.9 µg/mL. For the same molecule, the “total amino acid equivalent (TAAE)” value ([1]; pH 2.0, 60 ppm ascorbic acid, 3 hr) was 44.9 µg/mL, the “total amino acid equivalent (TAAE)” value ([1]; pH 2.0, 120 ppm ascorbic acid, 0.1 hr) was 6.7 µg/mL and the “total amino acid equivalent (TAAE)” value ([1]; pH 2.0, 120 ppm ascorbic acid, 1 hr) was 45.1 µg/mL. For the same molecule, the “total amino acid equivalent (TAAE)” value ([1]; pH 2.0, 120 ppm ascorbic acid, 2 hr) was 73.0 µg/mL, the “total amino acid equivalent (TAAE)” value ([1]; pH 2.0, 120 ppm ascorbic acid, 3 hr) was 58.7 µg/mL and the “total amino acid equivalent (TAAE)” value ([1]; pH 2.0, 240 ppm ascorbic acid, 0.1 hr) was 5.6 µg/mL. The “total amino acid equivalent (TAAE)” value ([1]; pH 2.0, 240 ppm ascorbic acid, 1 hr) was 54.6 µg/mL, the “total amino acid equivalent (TAAE)” value ([1]; pH 2.0, 240 ppm ascorbic acid, 2 hr) was 76.4 µg/mL and the “total amino acid equivalent (TAAE)” value ([1]; pH 2.0, 240 ppm ascorbic acid, 3 hr) was 38.2 µg/mL. For the same molecule, the “hydrolysis efficiency of pepsin versus control group (in words)” value ([1]; pH 2.0, groups containing ascorbic acid) was “better hydrolysis efficiencies than the control group”, the TAAE [1, 4] was 6.4 µg/mL and the TAAE [1, 5] was 32.7 µg/mL. For the same molecule, the TAAE [1, 6] was 58.6 µg/mL, the TAAE [1, 7] was 42.0 µg/mL and the TAAE [1, 8] was 19.5 µg/mL. It also gave a TAAE [1, 9] of 22.1 µg/mL, a TAAE [1, 10] of 55.4 µg/mL and a TAAE [1, 11] of 38.1 µg/mL. For the same molecule, the “proteolytic efficiency of pepsin (in words)” value ([1]; pH 5.0, 240 ppm ascorbic acid) was “improves the proteolytic efficiency of the pepsin significantly”, the TAAE [1, 12] was 49.5 µg/mL and the TAAE [1, 13] was 81.1 µg/mL. For the same molecule, the TAAE [1, 14] was 92.2 µg/mL, the TAAE [1, 15] was 72.6 µg/mL and the “effect on proteolysis efficiency of pepsin (in words)” value ([1]; pH 5, pH 6 and pH 2, control group at pH 2 as comparison indicator) was “significant effect on the proteolysis efficiency of the pepsin”. It also gave a TAAE [1, 16] of 4.2 µg/mL, a TAAE [1, 17] of 47.9 µg/mL and a TAAE [1, 18] of 40.4 µg/mL. It also gave a TAAE [1, 19] of 27.5 µg/mL, a TAAE [1, 20] of -6.7 µg/mL and a TAAE [1, 21] of 43.9 µg/mL. The TAAE [1, 22] was 24.4 µg/mL, the TAAE [1, 23] was 24.2 µg/mL and the TAAE [1, 24] was 1.8 µg/mL. For the same molecule, the TAAE [1, 25] was 31.5 µg/mL, the TAAE [1, 26] was 57.4 µg/mL and the TAAE [1, 27] was 34.5 µg/mL. For the same molecule, the “proteolytic efficiency of pepsin versus control group (in words)” value [1, 28] was “better proteolytic efficiencies than the control group”, the TAAE [2, 4] was 11.5 µg/mL and the TAAE [2, 5] was 30.4 µg/mL. The TAAE [2, 6] was 37.8 µg/mL, the TAAE [2, 7] was 45.2 µg/mL and the TAAE [2, 8] was 15.3 µg/mL. For the same molecule, the TAAE [2, 9] was 38.0 µg/mL, the TAAE [2, 10] was 39.0 µg/mL and the TAAE [2, 11] was 49.1 µg/mL. For the same molecule, the “proteolytic efficiency of trypsin (in words)” value ([2]; pH 5.0, 240 ppm ascorbic acid) was “improves the proteolytic efficiency of the trypsin significantly”, the TAAE [2, 12] was 38.9 µg/mL and the TAAE [2, 13] was 37.5 µg/mL. The TAAE [2, 14] was 87.9 µg/mL, the TAAE [2, 15] was 89.3 µg/mL and the “effect on proteolysis efficiency of trypsin (in words)” value ([2]; pH 5, pH 6 and pH 7.5, control group at pH 7.5 as comparison indicator) was “significant effect on the proteolysis efficiency of the trypsin”. It also gave a TAAE [2, 16] of 57.7 µg/mL, a TAAE [2, 17] of 86.6 µg/mL and a TAAE [2, 18] of 90.4 µg/mL. It also gave a TAAE [2, 19] of 93.7 µg/mL, a TAAE [2, 20] of 54.2 µg/mL and a TAAE [2, 21] of 85.6 µg/mL. For the same molecule, the TAAE [2, 22] was 91.3 µg/mL, the TAAE [2, 23] was 94.8 µg/mL and the TAAE [2, 24] was 57.9 µg/mL. It also gave a TAAE [2, 25] of 102.4 µg/mL, a TAAE [2, 26] of 103.1 µg/mL and a TAAE [2, 27] of 91.5 µg/mL. The “proteolytic efficiency of trypsin versus control group (in words)” value [2, 28] was “better proteolytic efficiencies than the control group”, the TAAE ([2]; pH 7.5, 60 ppm ascorbic acid, 0.1 hr) was 82.6 µg/mL and the TAAE ([2]; pH 7.5, 60 ppm ascorbic acid, 1 hr) was 107.0 µg/mL. The TAAE ([2]; pH 7.5, 60 ppm ascorbic acid, 2 hr) was 103.8 µg/mL, the TAAE ([2]; pH 7.5, 60 ppm ascorbic acid, 3 hr) was 105.1 µg/mL and the TAAE ([2]; pH 7.5, 120 ppm ascorbic acid, 0.1 hr) was 78.4 µg/mL. It also gave a TAAE ([2]; pH 7.5, 120 ppm ascorbic acid, 1 hr) of 116.3 µg/mL, a TAAE ([2]; pH 7.5, 120 ppm ascorbic acid, 2 hr) of 107.3 µg/mL and a TAAE ([2]; pH 7.5, 120 ppm ascorbic acid, 3 hr) of 99.0 µg/mL. The TAAE ([2]; pH 7.5, 240 ppm ascorbic acid, 0.1 hr) was 60.4 µg/mL, the TAAE ([2]; pH 7.5, 240 ppm ascorbic acid, 1 hr) was 91.1 µg/mL and the TAAE ([2]; pH 7.5, 240 ppm ascorbic acid, 2 hr) was 100.5 µg/mL. The TAAE ([2]; pH 7.5, 240 ppm ascorbic acid, 3 hr) was 86.8 µg/mL, the “hydrolysis efficiency of trypsin versus control group (in words)” value ([2]; pH 7.5, groups containing ascorbic acid) was “better hydrolysis efficiencies than the control group” and the “stability (degradation) of ascorbic acid (in words)” value [3] was “easily degraded”.

Reference: patent publication US11968999B2, “Use and composition of buffer formulation with multiple pH values and protein digestion enhancer” (ECO-GEO BIO-TECHNOLOGY COMPANY LIMITED, priority 2018, dated 2024)
